Assay results as given in patent publication US9417257B2, “System and method for collecting, storing, processing, transmitting and presenting very low amplitude signals” (Nativis, Inc., priority 2004, dated 2016).
Where a SMILES comes first, the peptide text is derived from it. [ ]: non-standard residue; d: D form. Nle = CCCC[C@H](N)C(=O)O

Tests used:
[1] = target: T1, 20S proteasome (Homo sapiens, UniProt P28074); experiment: 20S proteasome assay, cleavage of Suc-Leu-Leu-Val-Tyr-AMC (fluorescence); format: biochemical
T1 construct: purchased EMD Biosciences 539158
Excerpt: The 20S proteasome enzyme is activated with a mild detergent (SDS). The cleavage of the substrate Suc-Leu-Leu-Val-Tyr-AMC by the activated enzyme liberates the fluorescent AMC molecules that can be monitored by exciting AMC at 380 nm and detecting the fluorescence at 460 nm. Proteosome activity is inhibited by phepropeptin D.
In a first study, the ability of phepropeptin D and a MIDS signal of phepropeptin D to inhibit proteosome activity, as measured by the appearance of conversion of the substrate Suc-Leu-Leu-Val-Tyr-AMC to yield a fluorescent signal were measured, following substantially the same methodology described above and in the examples.
The 20S Proteasome assay kit (EMD Biosciences Cat #539158) was adapted for use in a cuvette format with a final volume of 200 μl. Nine samples were set-up using the following procedure:
Reaction buffer (20×) was diluted, 100 μl with 880 μl of HPLC grade water and 20 μl of 100× activation buffer to a final volume of 1 ml.
100 μl of the diluted 2× reaction buffer was added to each of the no enzyme control tubes.
The 20S proteasome enzyme was added to the remaining solution, 3.2 μl to 800 μl of 2× reaction buffer and 100 μl added to each of 7 remaining tubes.
To each tube 100 μl of water or water and inhibitor were added.
In a separate tube 4 μl of the substrate was diluted with 96 μl of HPLC grade water and 10 μl/tube of the diluted substrate was added to each of the reaction tubes to obtain a final volume of 200 μl.
Samples were all mixed by repeated pipetting and the reactions incubated at 37 C for 2 hrs.
Fluorescence was quantiated and recorded using a fluorometer (Turner Designs, Sunnyvale, Calif.—Model TD-700).
In a follow-up study, samples were allowed to incubate at room temperature overnight to determine if the substrate would continue to be converted to the fluorescent product. […]

[2] = tested on: araC-PBAD promoter dependent expression of GFPuv; settings: cited from earlier work
[3] = tested on: araC-PBAD promoter dependent expression of GFPuv; experiment: Induction of araC-PBAD GFPuv reporter in pBAD-GFPuv transformed JM109 bacteria, whole cell fluorescence; format: cell-based, E coli; settings: MIDS = signal playback
Excerpt: The reporter system for sugar sensing was obtained from a commercial supplier. In this system, bacteria are transformed with a plasmid that consists of the gene for AraC, which acts as an activator of the ara operon, and the gene for a variant green florescent protein, under the control of the PBAD promoter. L-arabinose specifically binds to araC and rapidly turns on transcription in a time dependent fashion reaching a maximum expression level within 3 hr as monitored by intact whole cell fluorescence of the expressed GFP. GFPuv expression is linear with dose over two logs of concentration of L-arabinose (1-500 uM).
The inherent (MIDS) emission signals of L and D-arabinose are obtained as detailed above, employing a 0.1 mM solution of L(+) Ara or D(+) Ara for signal recording, and the autocorrelation/FFT method for identifying optimized time-domain signals.
Transduction experiments were performed with two sets of coils. In the first system, a pair of coils consisting of 30 gauge aluminum wire was wound around a 3″ tall section of PVC core with 2⅝″ o.d., wound to 35× the number of windings of starting coils. These were place inside aluminum Faraday boxes 5½×4″×8¾″ (W×H×D) to isolate samples for crossover RF signals. Both boxes were placed upon the orbital shaker platform to aerate transducing cultures.
In the second set of three 4″ tall stock 4000-ft spools of 28G insulated copper wired with 1″ i.d. plastic cores were directly used as transduction coils (“Mega coils”) and two coils were driven with the MIDS signals, while the third control coil was driven by a random white noise generator. In this case, all three coils were isolated in Faraday boxes, and mounted separated by 2 ft on a 6-ft plank that was fitted to the orbital shaker. This ensured that all three samples were agitated at the same speed with one shaker. Thermistor temperature probes were also place into the core of each coil proximal to the sample to provide real-time reading of temperature. Both sets of MIDS signal coils were driven at the highest input voltage setting until their temperature equilibrated near 94-97° F. from resistive heating of the wound wire. Samples were centered in the core of the coil to experience the maximum and most uniform area of RF flux. (a limitation of the current set-up was the linkage of heating with driving voltages which control RF flux).
In a typical experiment, 1-3 drops of overnight cultures of pBAD-GFPuv transformed JM109 grown in Luria broth containing 100-500 ug/ml of sodium ampicillin (LB/amp) were used to seed 50 ml fresh LB/amp. This was well mixed and 10 ml transferred to 25-ml Erlenmeyer flasks, and 0.1 ml of 100× stocks of reference chemical inducers (D or L arabinose) were added to final concentrations desired. These seeded cultures were placed into either the transduction coils, or left on the shaker platform as controls. (Another limitation of the current set up is the availability of only one shaker table, forcing a choice between incubation at controlled above ambient temperature to match the coils but without agitation, or agitation simply at ambient temperature. Also the matching of the coil temperatures varies about 2-3° F. and cannot be precisely controlled or determined). In most cases the transductions were conducted as overnight incubations.
After transduction was stopped, 1.2 ml of bacterial cell culture suspension were transferred to 1.7 ml microcentrifuge tubes and centrifuge 1-2 mins at 12,000 rpm (10,000×rcg). Supernatant broth was removed, discarded and the bacterial pellets re-suspended in 1 ml of ice-cold PBS. Washed suspensions were centrifuged again, PBS wash discarded, pellets re-suspended in fresh PBS, transferred to cuvettes to measure OD600 nm, then volumes were adjusted to match cell density among samples.
For each of the studies reported here, % Relative=[(Fluor. of L(+)ara MIDS)−(Fluor. of D(−)ara MIDS)]
Induction (Fluor. of D(−) ara MIDS).

[4] = tested on: pea sprouts; experiment: Sugar pea sprout stem length, inhibition by herbicide; format: in vivo; settings: 72 hour, 37° C., 100% humidity; FIG. 31
Procedure: The optimized inherent (MIDS) emission signals of glyphosphate were obtained as described in Sections II and III above, using system equipment and protocols as detailed in Examples 1 and 2 below. In one experiment, an optimized glyphosphate MIDS signal was applied to pea sprouts supported on a moist medium, with signal application over a 72 hour period at 37° C., 100% humidity. Various controls included (1) no signal, (2), the chemical Roundup®, and (3) a white noise signal. Stem length was measured within a hour after exposure to the stimulus, and 5-50 sprouts were contained in each group.

[5] = tested on: MDA-MB-435 human breast tumor; experiment: MDA-MB-435 human breast tumor mouse xenograft; format: in vivo, athymic nude mice; settings: day 36; outliers removed; taxol 15 mg/kg i.p. twice a wk; MIDS continuous playback
Procedure: Method: MIDS measurement was made in glass sample holders (Kimble autoinjector vials) on (1) neat solution of the preformulated taxol clinical vial, using a 1 ml tuberculin syringe, and 22G needle, to withdraw 0.7 ml from multidose vial (preserve sterility and integrity of solution, so don't syringe back in), then (2) this 0.7 ml taxol formulation will be used to dissolve additional 1 mg vials of taxol, to increase the amount of taxol relative to Cremophor®. The study was designed to evaluate the efficacy of a transduction technology to inhibit tumor growth in an in vivo human tumor mouse xenograft model, and to compare its effect to a standard chemotherapeutic treatment-taxol. 5 million MDA-MB-435 cells, in suspension, were subcutaneously injected into the flanks of athymic nude mice. Treatment began the same day of cell implant (Day 1). Animals were assigned to one of 4 groups. Each animal was monitored for tumor growth twice per week for the duration of the study. One group was treated with Taxol, Two groups were treated with transduction and one group was treated with the taxol vehicle to act as a control.
The mice were athymic nude mice nu/nu with a BALB/c background. Implanted with 5 million of breast cancer tumor line MDA-MB-435(NCI standard originally from the NCI) from American Culture Type Collection, ATCC (Rockville, Md.). […]

[6] = Experiment 1, OD-matched cells, L(+) Ara 0.2 mM, D(−) Ara 1 mM
[7] = Experiment 2, L(+) ara 0.25 mM, D(−) ara 1 mM

SMILES	Fluorescence Average rfu [3, 6] [rfu]	Fluorescence rfu1 [3, 6] [rfu]	Fluorescence rfu2 [3, 6] [rfu]	Fluorescence rfu3 [3, 6] [rfu]	Fluorescence Average rfu [3, 7] [rfu]	Fluorescence rfu1 [3, 7] [rfu]	Fluorescence rfu2 [3, 7] [rfu]	Fluorescence rfu3 [3, 7] [rfu]	other results
CCCC[C@@H](C=O)NC(=O)[C@H](CC(C)C)NC(=O)[C@H](CC(C)C)NC(C)=O [ALLN] (Ac-Leu-Leu-[Nle]-aldehyde)									Fluorescence relative to positive control sample #2 set to 700 ([1]; 37 C, 2 hrs, MIDS 60 mG AC field): 25.83; % Normalized Fluorescence ([1]; 1 hr 30 min): 4.975%; % Normalized Fluorescence ([1]; 20 hrs post, room temperature overnight, removed from the field): 2.646%
O=C[C@@H](O)[C@H](O)[C@H](O)CO [D(−) Ara, D(−)-arabinose]	297.7	297.6	297.8	297.7	226.5	226.7	226.7	226.1	binding of araC and activation of genes downstream of the PBAD promoter (in words) ([2]; even at 1000-fold higher concentration than L-arabinose): does not bind araC, nor activate expression of genes downstream of the PBAD promoter
O=C[C@H](O)[C@@H](O)[C@@H](O)CO [L(+) Ara, L(+)-arabinose]	833.5	835.0	832.7	832.7	939.7	940.0	939.4	939.7	concentration range over which GFPuv expression is linear with dose [2]: 1 to 500 µM; potency [2]: 100 µM; time to maximum expression level of GFP ([2]; whole cell fluorescence): ≤ 3 h
O=C(O)CNCP(=O)(O)O [glyphosphate, N-phosphonomethylglycine]									stem growth (in words) [4]: effective in substabtially inhibited stem growth
CC(=O)O[C@H]1C(=O)[C@@]2(C)[C@H]([C@H](OC(=O)c3ccccc3)[C@]3(O)C[C@H](OC(=O)[C@H](O)[C@@H](NC(=O)c4ccccc4)c4ccccc4)C(C)=C1C3(C)C)[C@]1(OC(C)=O)CO[C@@H]1C[C@@H]2O [taxol]									tumor growth inhibition [5]: 43%
